How the values were obtained:
[1] = system: a variety of test species; test: Pre-emergence herbicidal activity (Example 8a, Table 2); assay type: in vivo; design: key: 0 = no damage to plant, 5 = total damage to plant; conditions: application pre-emergence, rate 1000 g/ha, evaluated after 13 days
Procedure: Seeds of a variety of test species were sown in standard soil in pots. After cultivation for one day (pre-emergence) under controlled conditions in a glasshouse (at 24/16° C., day/night; 14 hours light; 65% humidity), the plants were sprayed with an aqueous spray solution derived from the formulation of the technical active ingredient in acetone/water (50:50) solution containing 0.5% Tween 20 (polyoxyethelyene sorbitan monolaurate, CAS RN 9005-64-5). The test plants were then grown in a glasshouse under controlled conditions (at 24/16° C., day/night; 14 hours light; 65% humidity) and watered twice daily. After 13 days, the test was evaluated (5=total damage to plant; 0=no damage to plant).

[2] = system: a variety of test species; test: Post-emergence herbicidal activity (Example 8b, Table 3); assay type: in vivo; conditions: application post-emergence, rate 1000 g/ha, evaluated after 13 days, scale 0-5; for Herbicidal damage score, ABUTH: Abutilon theophrasti; for Herbicidal damage score, ALOMY: Alopecurus myosuroides; for Herbicidal damage score, AMARE: Amaranthus retroflexus; for Herbicidal damage score, ECHCG: Echinochloa crus-galli; for Herbicidal damage score, SETFA: Setaria faberi; for Herbicidal damage score, ZEAMX: Zea mays
Procedure: Seeds of a variety of test species were sown in standard soil in pots. After 8 days cultivation (post-emergence) under controlled conditions in a glasshouse (at 24/16° C., day/night; 14 hours light; 65% humidity), the plants were sprayed with an aqueous spray solution derived from the formulation of the technical active ingredient in acetone/water (50:50) solution containing 0.5% Tween 20 (polyoxyethelyene sorbitan monolaurate, CAS RN 9005-64-5). The test plants were then grown in a glasshouse under controlled conditions (at 24/16° C., day/night; 14 hours light; 65% humidity) and watered twice daily. After 13 days, the test was evaluated (5=total damage to plant; 0=no damage to plant).

Row | SMILES | Pre-emergence herbicidal activity, damage score ABUTH [1] | Pre-emergence herbicidal activity, damage score ALOMY [1] | Pre-emergence herbicidal activity, damage score AMARE [1] | Pre-emergence herbicidal activity, damage score ECHCG [1] | Pre-emergence herbicidal activity, damage score SETFA [1] | Pre-emergence herbicidal activity, damage score ZEAMX [1] | Herbicidal damage score, ABUTH [2] | Herbicidal damage score, ALOMY [2] | Herbicidal damage score, AMARE [2] | Herbicidal damage score, ECHCG [2] | Herbicidal damage score, SETFA [2] | Herbicidal damage score, ZEAMX [2]
1 | CC1=C(Cl)C(=O)N(c2cc3n(n2)CCC3C)C1O (mixture of isomers) [Compound G1] | 5 | 4 | 5 | 5 | 4 | 3 | 5 | 5 | 5 | 5 | 5 | 5
2 | CCC1CCCn2nc(N3C(=O)C(Cl)=C(C)C3O)cc21 (mixture of isomers) [Compound G5] | 5 | 3 | 5 | 5 | 4 | 1 | 5 | 4 | 5 | 5 | 5 | 5
3 | CC1=C(Cl)C(=O)N(c2cc3n(n2)CCC3C)C1O (mixture of isomers) [Compound G6] | 5 | 4 | 5 | 5 | 4 | 3 | 5 | 5 | 5 | 5 | 5 | 5
4 | CCC1CCCn2nc(N3C(=O)C(Cl)=C(C)C3O)cc21 (mixture of isomers) [Compound G7] | 5 | 3 | 5 | 5 | 4 | 1 | 5 | 4 | 5 | 5 | 5 | 5
5 | CC1=C(Cl)C(=O)N(c2cc3n(n2)CC[S+]([O-])C3(C)C)C1O (mixture of isomers) [Compound G12] | 4 | 3 | 4 | 4 | 3 | 3 | 4 | 3 | 4 | 4 | 3 | 1
6 | CC1=C(Br)C(=O)N(c2cc3n(n2)CC[S+]([O-])C3(C)C)C1O (mixture of isomers) [Compound M5] | 2 | 1 | 2 | 2 | 1 | 1 | 4 | 2 | 2 | 2 | 1 | 0
7 | CC1=C(Cl)C(=O)N(c2cc(C(C)(C)C)[nH]n2)C1O (stereo not drawn) [Compound A1] | 5 | 3 | 5 | 5 | 5 | 2 | 5 | 5 | 5 | 5 | 5 | 5
8 | CC1=C(Cl)C(=O)N(c2cc(C(F)(F)F)[nH]n2)C1O (stereo not drawn) [Compound A2] | 5 | 0 | 5 | 3 | 0 | 2 | 5 | 4 | 3 | 4 | 5 | 1
9 | CC1=C(Cl)C(=O)N(c2cc(C(C)C)[nH]n2)C1O (stereo not drawn) [Compound A3] | 5 | 3 | 5 | 5 | 5 | 1 | 5 | 5 | 5 | 5 | 5 | 5
10 | CC1=C(Cl)C(=O)N(c2cc(C3CC3)[nH]n2)C1O (stereo not drawn) [Compound A4] | 5 | 4 | 5 | 5 | 5 | 2 | 5 | 5 | 5 | 5 | 5 | 5
11 | CC1=C(Cl)C(=O)N(c2cc(C)[nH]n2)C1O (stereo not drawn) [Compound A5] | 5 | 3 | 5 | 5 | 4 | 2 | 5 | 4 | 3 | 5 | 5 | 3
12 | CC1=C(Cl)C(=O)N(c2cc(C(F)(F)C(F)(F)F)[nH]n2)C1O (stereo not drawn) [Compound A6] | 5 | 3 | 5 | 4 | 4 | 1 | 5 | 5 | 5 | 5 | 4 | 4
13 | CCC(C)(CC)c1cc(N2C(=O)C(Cl)=C(C)C2O)n[nH]1 (stereo not drawn) [Compound A7] | 5 | 3 | 5 | 5 | 5 | 3 | 5 | 5 | 5 | 5 | 5 | 5
14 | CC1=C(Cl)C(=O)N(c2cc(C)n(C)n2)C1O (stereo not drawn) [Compound B1] | 5 | 3 | 5 | 4 | 4 | 3 | 5 | 4 | 5 | 5 | 5 | 5

Reference: US9605004B2, “Chemical compounds” (SYNGENTA LIMITED, priority 2013, dated 2017)
